Read-outs that look alike come from different tables or passages of the source.
How the values were obtained:
PIM-2 = PIM-2 (Homo sapiens (Human), UniProt Q9P1W9); assay: PIM-2 biochemical assay (ADP Hunter); settings: semi-quantitative; read-out: PIM2 IC50
From the text: The biochemical assay to measure PIM-2 activity relies on the ADP Hunter assay kit (DiscoveRx Corp., Cat. #90-0077), that determines the amount of ADP as direct product of the kinase enzyme activity.

PIM-1 = PIM-1 (Homo sapiens (Human), UniProt P11309); assay: PIM-1 biochemical assay (ADP Hunter)
[1] = read-out: PIM1 IC50, semi-quantitative

PIM-1, sequence (P11309 whole entry): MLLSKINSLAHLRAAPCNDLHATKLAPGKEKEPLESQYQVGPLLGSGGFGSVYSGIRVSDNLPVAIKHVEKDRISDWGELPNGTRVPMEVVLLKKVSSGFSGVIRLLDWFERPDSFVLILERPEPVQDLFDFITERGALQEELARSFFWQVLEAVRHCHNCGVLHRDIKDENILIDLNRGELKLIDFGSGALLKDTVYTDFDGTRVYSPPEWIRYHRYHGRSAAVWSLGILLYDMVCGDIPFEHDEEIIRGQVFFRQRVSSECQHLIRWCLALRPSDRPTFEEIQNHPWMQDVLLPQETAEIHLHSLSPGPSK
PIM-2, sequence (Q9P1W9 whole entry): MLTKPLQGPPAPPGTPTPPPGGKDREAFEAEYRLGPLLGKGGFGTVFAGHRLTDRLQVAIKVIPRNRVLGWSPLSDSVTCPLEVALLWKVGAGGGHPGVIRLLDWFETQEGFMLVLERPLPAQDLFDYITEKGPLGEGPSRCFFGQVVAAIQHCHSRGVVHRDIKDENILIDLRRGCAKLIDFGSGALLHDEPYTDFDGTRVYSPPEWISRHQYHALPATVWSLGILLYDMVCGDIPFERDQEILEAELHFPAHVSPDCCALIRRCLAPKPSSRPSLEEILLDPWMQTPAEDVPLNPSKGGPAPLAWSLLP

SMILES | IC50 (PIM-2) [µM] | IC50 (PIM-1) [µM] | IC50 (PIM-1; [1]) [µM]
CN1CCOc2c(NC3CCNCC3)nn3c(-c4cccc(OC(F)(F)F)c4)nnc3c21 [Example 47, [9-Methyl-3-(3-trifluoromethoxy-phenyl)-8,9-dihydro-7H-6-oxa-1,2,3a,4,9-pentaaza-cyclopenta[a]naphthalen-5-yl]-piperidin-4-yl-amine] | > 1 | 0.1 to 1 | 
COc1ccc(-c2nnc3c4c(c(NCC5CCN(C(=O)OC(C)(C)C)CC5)nn23)N(C)CCO4)cc1 [Example 51, 4-{[3-(4-Methoxy-phenyl)-6-methyl-7,8-dihydro-6H-9-oxa-1,2,3a,4,6-pentaaza-cyclopenta[a]naphthalen-5-ylamino]-methyl}-piperidine-1-carboxylic acid tert-butyl ester] | > 1 |  | > 1
CN1CCOc2c(NCC34CCN(CC3)C4)nn3c(-c4cccc(OC(F)(F)F)c4)nnc3c21 [Example 53, (1-Aza-bicyclo[2.2.1]hept-4-ylmethyl)-[9-methyl-3-(3-trifluoromethoxy-phenyl)-8,9-dihydro-7H-6-oxa-1,2,3a,4,9-pentaaza-cyclopenta[a]naphthalen-5-yl]-amine] | > 1 | 0.1 to 1 | 
CN1CCOc2c1c(N1CCCC3(CCCN3C)CC1)nn1c(-c3cccc(OC(F)(F)F)c3)nnc21 (centres unmarked) [Example 61, 6-Methyl-5-(1-methyl-1,8-diaza-spiro[4.6]undec-8-yl)-3-(3-trifluoromethoxy-phenyl)-7,8-dihydro-6H-9-oxa-1,2,3a,4,6-pentaaza-cyclopenta[a]naphthalene] | 0.1 to 1 |  | < 0.1
CNCC1CCN(c2nn3c(-c4cccc(OC(F)(F)F)c4)nnc3c3c2N(C)CCO3)CC1 [Example 63, Methyl-{1-[6-methyl-3-(3-trifluoromethoxy-phenyl)-7,8-dihydro-6H-9-oxa-1,2,3a,4,6-pentaaza-cyclopenta[a]naphthalen-5-yl]-piperidin-4-ylmethyl}-amine] | < 0.1 |  | < 0.1
CN1CCOc2c1c(N1CCCC3(CCNCC3)C1)nn1c(-c3cccc(OC(F)(F)F)c3)nnc21 [Example 68, 5-(2,9-Diaza-spiro[S5.5]undec-2-yl)-6-methyl-3-(3-trifluoromethoxy-phenyl)-7,8-dihydro-6H-9-oxa-1,2,3a,4,6-pentaaza-cyclopenta[a]naphthalene] | < 0.1 |  | < 0.1
CN1CCC(CNc2nn3c(-c4cccc(OC(F)(F)F)c4)nnc3c3c2N(C)C(C)(C)CO3)CC1 [Example 73, (1-Methyl-piperidin-4-ylmethyl)-[6,7,7-trimethyl-3-(3-trifluoromethoxy-phenyl)-7,8-dihydro-6H-9-oxa-1,2,3a,4,6-pentaaza-cyclopenta[a]naphthalen-5-yl]-amine] | 0.1 to 1 |  | < 0.1
CN1CCOc2c1c(NCC1CCN(C(=O)OC(C)(C)C)CC1)nn1c(-c3cccc(OC(F)(F)F)c3)nnc21 [Example 79, 4-{[6-Methyl-3-(3-trifluoromethoxy-phenyl)-7,8-dihydro-6H-9-oxa-1,2,3a,4,6-pentaaza-cyclopenta[a]naphthalen-5-ylamino]-methyl}-piperidine-1-carboxylic acid tert-butyl ester] | > 1 | 0.1 to 1 | 
COc1ccc(-c2nnc3c4c(c(NCc5ccc(F)cc5)nn23)OCCN4C)cc1 [Example 80, (4-Fluoro-benzyl)-[3-(4-methoxy-phenyl)-9-methyl-8,9-dihydro-7H-6-oxa-1,2,3a,4,9-pentaaza-cyclopenta[a]naphthalen-5-yl]-amine] | > 1 |  | > 1
CN1CCOc2c(N3CC4(CCNCC4)C3)nn3c(-c4cccc(OC(F)(F)F)c4)nnc3c21 [Example 83, 5-(2,7-Diaza-spiro[3.5]non-2-yl)-9-methyl-3-(3-trifluoromethoxy-phenyl)-8,9-dihydro-7H-6-oxa-1,2,3a,4,9-pentaaza-cyclopenta[a]naphthalene] | > 1 | 0.1 to 1 | 

From patent US9682991B2, “Tricyclic compounds for use as kinase inhibitors” (FUNDACIÓN CENTRO NACIONAL DE INVESTIGACIONES ONCOLOGICAS …, priority 2009, dated 2017)
